Laboratory results reported in the supplement of paper PMC11061612.

Columns and labels:
Test in all cases: Bliss excess, mean over the matrix (fraction); higher = more synergy
CAL-78 (Chondrosarcoma) = tested on: CAL-78 (Chondrosarcoma)
Procedure, shortened: (§1)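 After 24 hours at 37°C and 5% CO2 in 1536-well plates, cells in DMEM/F12 or RPMI plus 10% FBS received two-drug dose matrices for 72 hours. Viability came from CellTiter-Glo 2.0 luminescence and was scaled as inhibition, anchored at 0 by vehicle wells and at 1 by blank wells. Combination Emax is taken as the second-highest inhibition in the matrix, and Bliss excess as the observed combination effect less EA + EB − EA·EB, with EA and EB the single-agent effects.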

[1] = tested on: OCI-AML2 (Acute Myeloid Leukemia)
Procedure, shortened: as §1

ES7 (Ewing's Sarcoma) = tested on: ES7 (Ewing's Sarcoma)
Procedure, shortened: as §1

[2] = tested on: NCI-H1793 (Lung Adenocarcinoma)
Procedure, shortened: as §1

[3] = tested on: SUIT-2 (Pancreatic Carcinoma)
Procedure, shortened: as §1

[4] = tested on: C3A (Hepatocellular Carcinoma)
Procedure, shortened: as §1

[5] = tested on: LS-513 (Colorectal Carcinoma)
Procedure, shortened: as §1

SK-N-FI (Neuroblastoma) = tested on: SK-N-FI (Neuroblastoma)
Procedure, shortened: as §1

[6] = tested on: DB (B-Cell Non-Hodgkin's Lymphoma)
Procedure, shortened: as §1

[7] = tested on: HCC2157 (Breast Carcinoma)
Procedure, shortened: as §1

[8] = tested on: DOV13 (Ovarian Carcinoma)
Procedure, shortened: as §1

[9] = tested on: KARPAS-620 (Plasma Cell Myeloma)
Procedure, shortened: as §1

[10] = tested on: NCI-H1299 (Non-Small Cell Lung Carcinoma)
Procedure, shortened: as §1

[11] = tested on: NALM-6 (B-Lymphoblastic Leukemia)
Procedure, shortened: as §1

DSH1 (Bladder Carcinoma) = tested on: DSH1 (Bladder Carcinoma)
Procedure, shortened: as §1

[12] = tested on: U-266 (Plasma Cell Myeloma)
Procedure, shortened: as §1

[13] = tested on: EM-2 (Chronic Myelogenous Leukemia)
Procedure, shortened: as §1

[14] = tested on: LU-99A (Non-Small Cell Lung Carcinoma)
Procedure, shortened: as §1

[15] = tested on: MDA-MB-157 (Breast Carcinoma)
Procedure, shortened: as §1

[16] = tested on: JiyoyeP-2003 (Burkitt's Lymphoma)
Procedure, shortened: as §1

Row | SMILES | Bliss excess (CAL-78 (Chondrosarcoma)) | Bliss excess [1] | Bliss excess (ES7 (Ewing's Sarcoma)) | Bliss excess [2] | Bliss excess [3] | Bliss excess [4] | Bliss excess [5] | Bliss excess (SK-N-FI (Neuroblastoma)) | Bliss excess [6] | Bliss excess [7] | Bliss excess [8] | Bliss excess [9] | Bliss excess [10] | Bliss excess [11] | Bliss excess (DSH1 (Bladder Carcinoma)) | Bliss excess [12] | Bliss excess [13] | Bliss excess [14] | Bliss excess [15] | Bliss excess [16]
1 | CC1(C)CCC(CN2CCN(c3ccc(C(=O)NS(=O)(=O)c4ccc(NCC5CCOCC5)c([N+](=O)[O-])c4)c(Oc4cnc5[nH]ccc5c4)c3)CC2)=C(c2ccc(Cl)cc2)C1 [Venetoclax] + Cn1cnc2c(F)c(Nc3ccc(Br)cc3Cl)c(C(=O)NOCCO)cc21 [Selumetinib] (first compound max 1 µM, 7x7, partner max 3 µM) | -0.0619 | 0.014 | -0.0127 | -0.0096 | -0.0942 | -0.017 | -0.0159 | 0.0374 | -0.0192 | -0.006 | -0.0151 | 0.16 | -0.0424 | 0.168 | 0.0225 | 0.0137 | -0.055 | -0.0484 | 0.0208 | 0.0014
2 | CN(CCO)CC[C@H](CSc1ccccc1)Nc1ccc(S(=O)(=O)NC(=O)c2ccc(N3CCC([C@@H](O)c4ccccc4-c4ccc(Cl)cc4)CC3)cc2)cc1S(=O)(=O)C(F)(F)F [AZD4320] + C1CN(CCC1(C(=O)N[C@@H](CCO)C2=CC=C(C=C2)Cl)N)C3=NC=NC4=C3C=CN4 [Capivasertib] (first compound max 1 µM, 7x7, partner max 3 µM) | -0.0482 | -0.0333 | 0.0083 | -0.0106 | -0.054 | -0.0904 | -0.0728 | -0.0158 | -0.0196 | 0.0191 | 0.0131 | 0.0032 | -0.029 | 0.0091 | -0.0038 | -0.0061 | 0.0261 | -0.0693 | -0.0178 | 0.0157
3 | Cc1c2c(nn1C)CSCc1cc(n(C)n1)CSc1cc(c3ccccc3c1)OCCCc1c(C(=O)O)n(C)c3c-2c(Cl)ccc13 [AZD5991] + CCN(CCO)CCCOc1ccc2c(Nc3cc(CC(=O)Nc4cccc(F)c4)[nH]n3)ncnc2c1 [AZD2811] (first compound max 1 µM, 7x7, partner max 1 µM) | -0.0228 | 0.126 | 0.0267 | -0.0255 | 0.0126 | 0.0494 | 0.0137 | 0.0054 | 0.0711 | -0.0241 | 0.0169 | 0.066 | -0.0012 | -0.0839 | 0.0492 | 0.0482 | -0.0729 | 0.0252 | 0.078 | 0.0917
4 | COc1nnc2ccc(N3CCC(c4ccc(OCCN5CCN(C)C(=O)[C@H]5C)cc4)CC3)nn12 [AZD5153] + Cn1cnc2c(F)c(Nc3ccc(Br)cc3Cl)c(C(=O)NOCCO)cc21 [Selumetinib] (first compound max 1 µM, 7x7, partner max 10 µM) | -0.0315 | 0.0311 | -0.0502 | 0.0212 | 0.0227 | -0.0272 | -0.0213 | -0.0386 | 0.0093 | -0.0038 | -0.0263 | 0.112 | -0.0243 | 0.0085 | -0.0458 | 0.0347 | 0.0468 | -0.0118 | 0.0292 | -0.0117
5 | CN(CCO)CC[C@H](CSc1ccccc1)Nc1ccc(S(=O)(=O)NC(=O)c2ccc(N3CCC([C@@H](O)c4ccccc4-c4ccc(Cl)cc4)CC3)cc2)cc1S(=O)(=O)C(F)(F)F [AZD4320] + Cc1cc2ncnn2cc1Nc1ncc2c(n1)n(C1CCOCC1)c(=O)n2C [AZD7648] (first compound max 1 µM, 7x7, partner max 10 µM) | -0.0388 | 0.0136 | -0.0455 | 0.0025 | -0.0389 | -0.0546 | -0.0543 | -0.0203 | -0.0149 | 0.0378 | -0.0588 | 0.0178 | -0.0408 | -0.0061 | -0.0266 | -0.0005 | 0.0184 | -0.0522 | -0.0225 | -0.0322
6 | COc1cccc(OCCCN)c1-c1cc(Nc2cnc(C#N)cn2)n[nH]1 [Prexasertib] + C[C@@H]1COCCN1C2=NC(=NC(=C2)C3(CC3)[S@](=N)(=O)C)C4=C5C=CNC5=NC=C4 [AZD6738] (first compound max 1 µM, 7x7, partner max 10 µM) | -0.0331 | -0.021 | -0.0416 | -0.0106 | -0.03 | -0.034 | -0.0183 | 0.0336 | -0.0569 | -0.0145 | 0.0179 | -0.0375 | -0.0013 | -0.0522 | -0.0083 | -0.0859 | -0.0344 | -0.0398 | -0.0256 | -0.0065
7 | NC1(C(=O)N[C@@H](CCO)c2ccc(Cl)cc2)CCN(c2ncnc3[nH]ccc23)CC1 [Capivasertib] + CC(=O)c1c(C)c2cnc(Nc3ccc(N4CCNCC4)cn3)nc2n(C2CCCC2)c1=O [Palbociclib] (first compound max 10 µM, 7x7, partner max 10 µM) | -0.0424 | 0.0134 | 0.0092 | -0.0287 | -0.0047 | 0.0164 | -0.0138 | -0.0581 | 0.0453 | -0.0052 | 0.0055 | 0.0171 | 0.0662 | -0.0107 | -0.0395 | -0.0606 | -0.0552 | -0.0189 | 0.0439 | 0.0203
8 | Cc1nc(Nc2ncc(C(=O)Nc3c(C)cccc3Cl)s2)cc(N2CCN(CCO)CC2)n1 [Dasatinib] + CC(=O)Nc1cccc(-n2c(=O)n(C3CC3)c(=O)c3c(Nc4ccc(I)cc4F)n(C)c(=O)c(C)c32)c1 [Trametinib] (first compound max 2 µM, 7x7, partner max 1 µM) | -0.108 | 0.0363 | -0.0112 | -0.0406 | 0.0197 | -0.0059 | 0.0777 | 0.0118 | -0.0005 | -0.0199 | 0.0135 | 0.0632 | 0.035 | 0.0217 | -0.0516 | 0.0609 | -0.0935 | -0.0137 | -0.0026 | 0.193
9 | CC1(C)CCC(CN2CCN(c3ccc(C(=O)NS(=O)(=O)c4ccc(NCC5CCOCC5)c([N+](=O)[O-])c4)c(Oc4cnc5[nH]ccc5c4)c3)CC2)=C(c2ccc(Cl)cc2)C1 [Venetoclax] + C1CN(CCC1(C(=O)N[C@@H](CCO)C2=CC=C(C=C2)Cl)N)C3=NC=NC4=C3C=CN4 [Capivasertib] (first compound max 1 µM, 7x7, partner max 3 µM) | -0.0387 | 0.0444 | -0.0178 | -0.041 | -0.0663 | -0.0621 | -0.0649 | 0.0002 | 0.0332 | -0.0055 | -0.0028 | 0.0971 | -0.0036 | 0.0346 | -0.0642 | -0.071 | -0.0593 | -0.0702 | -0.0187 | -0.0144
10 | CC1(C)CCC(CN2CCN(c3ccc(C(=O)NS(=O)(=O)c4ccc(NCC5CCOCC5)c([N+](=O)[O-])c4)c(Oc4cnc5[nH]ccc5c4)c3)CC2)=C(c2ccc(Cl)cc2)C1 [Venetoclax] + C[C@@H](Nc1cc(F)cc(F)c1)c1cc(C(=O)N(C)C)cc2c(=O)cc(N3CCOCC3)oc12 [AZD8186] (first compound max 1 µM, 7x7, partner max 3 µM) | -0.0152 | -0.0033 | 0.135 | 0.0197 | -0.0481 | -0.0803 | -0.0551 | -0.0178 | -0.0332 | 0.115 | -0.0073 | -0.0022 | -0.0492 | 0.0348 | 0.002 | 0.0357 | 0.0104 | -0.0412 | 0.0095 | 0.0246
11 | Cc1cc2ncnn2cc1Nc1ncc2c(n1)n(C1CCOCC1)c(=O)n2C [AZD7648] + C=CCn1c(=O)c2cnc(Nc3ccc(N4CCN(C)CC4)cc3)nc2n1-c1cccc(C(C)(C)O)n1 [AZD1775] (first compound max 10 µM, partner max 1 µM) | -0.0147 | -0.0039 | -0.0044 | 0.0622 | -0.0403 | 0.0187 | -0.023 | -0.0415 | -0.0984 | -0.0133 | -0.0795 | -0.0493 | -0.0314 | -0.041 | 0.0281 | -0.0457 | -0.015 | -0.0262 | 0.0003 | 0.0246
12 | C=CCn1c(=O)c2cnc(Nc3ccc(N4CCN(C)CC4)cc3)nc2n1-c1cccc(C(C)(C)O)n1 [AZD1775] + C[C@@H]1COCCN1C2=NC(=NC(=C2)C3(CC3)[S@](=N)(=O)C)C4=C5C=CNC5=NC=C4 [AZD6738] (first compound max 1 µM, partner max 10 µM) | 0.0171 | 0.0349 | 0.0753 | -0.0289 | -0.0287 | -0.0104 | -0.0242 | -0.0346 | -0.0023 | 0.0218 | 0.0366 | 0.0335 | -0.0268 | 0.0491 | 0.0201 | 0.0235 | 0.0362 | -0.0377 | 0.0217 | 0.046
13 | Cc1c2c(nn1C)CSCc1cc(n(C)n1)CSc1cc(c3ccccc3c1)OCCCc1c(C(=O)O)n(C)c3c-2c(Cl)ccc13 [AZD5991] + CC1(C)CCC(CN2CCN(c3ccc(C(=O)NS(=O)(=O)c4ccc(NCC5CCOCC5)c([N+](=O)[O-])c4)c(Oc4cnc5[nH]ccc5c4)c3)CC2)=C(c2ccc(Cl)cc2)C1 [Venetoclax] (first compound max 1 µM, 7x7, partner max 1 µM) | -0.0118 | 0.143 | 0.102 | -0.0081 | -0.0287 | -0.0519 | -0.0523 | 0.034 | 0.185 | 0.0305 | 0.0007 | 0.119 | -0.031 | 0.173 | 0.0397 | 0.0759 | 0.248 | -0.0555 | 0.004 | 0.0249
14 | CC1(C)CCC(CN2CCN(c3ccc(C(=O)NS(=O)(=O)c4ccc(NCC5CCOCC5)c([N+](=O)[O-])c4)c(Oc4cnc5[nH]ccc5c4)c3)CC2)=C(c2ccc(Cl)cc2)C1 [Venetoclax] + C[C@@H]1COCCN1C2=NC(=NC(=C2)C3(CC3)[S@](=N)(=O)C)C4=C5C=CNC5=NC=C4 [AZD6738] (first compound max 1 µM, 7x7, partner max 10 µM) | 0.0138 | 0.0166 | 0.0245 | 0.0073 | -0.0491 | -0.0503 | -0.0591 | 0.0009 | 0.009 | 0.0204 | -0.001 | 0.0235 | -0.0203 | 0.0565 | -0.0662 | -0.0402 | -0.0272 | -0.0278 | -0.0195 | 0.0139
